Consider three compounds from patent US6528456B2, “Herbicidal 2-pyrazolyl-6-aryloxypyri(mi)dines” (BASF Aktiengesellschaft, priority 1999, dated 2003).

What all share (format): in vivo
For test [1], the system named is Matricaria inodora. Put plainly: Pre-emergence test. Conditions: 3 weeks after treatment. The procedure:
(§1) To evaluate their herbicidal activity, compounds according to the invention are tested using a representative range of plants: MATIN Matricaria inodora The pre-emergence tests involve spraying a liquid formulation of the compound onto the soil in which the seeds of the plant species mentioned above has recently been sown. The soil used in the tests is a prepared horticultural loam. The formulations used in the tests are prepared from solutions of the test compounds in acetone containing 0.4% by weight of an alkylphenol/ethylene oxide condensate available under the trade mark TRITON X-155. These acetone solutions are diluted with water and the resulting formulations applied at dosage levels corresponding to 0.025 kg, 0.100 kg or 0.400 kg of active material per hectare in a volume equivalent to 900 litres per hectare. In these tests untreated sown soil are used as controls. From 2 to 4 weeks after treatment, the tests are terminated and each pot is examined and rated according to the rating system set forth below: [table]

Another test relates to Stellaria media. The experiment in a line: Pre-emergence test. Conditions: 3 weeks after treatment. The procedure:
as §1, with “STEME Stellaria media” for “MATIN Matricaria inodora”

The next test relates to Setaria viridis. Put plainly: Pre-emergence test. Conditions: 3 weeks after treatment. How it is done:
as §1, with “SETVI Setaria viridis” for “MATIN Matricaria inodora”

Another test concerns Triticum aestivum. The experiment in a line: Pre-emergence test. Conditions: 3 weeks after treatment. The procedure:
as §1, with “TRZAW Triticum aestivum” for “MATIN Matricaria inodora”

The test system of the next test is Zea mays. The experiment in a line: Pre-emergence test. Conditions: 3 weeks after treatment. The procedure: as §1, with “ZEAMX Zea mays” for “MATIN Matricaria inodora”
Test [2] concerns Matricaria inodora. The experiment in a line: Post-emergence test. Conditions: 2-4 weeks after treatment. The procedure:
(§2) To evaluate their herbicidal activity, compounds according to the invention are tested using a representative range of plants: MATIN Matricaria inodora [table] […] These acetone solutions are diluted with water and the resulting formulations applied at dosage levels equivalent of about 0.1 to 0. 4 kg per hectare of test compound per pot. After spraying the plants are placed on greenhouse benches and are cared for in the usual manner, commensurate with conventional greenhouse practices. From 2 to 4 weeks after treatment, the seedling plants are examined and rated according to the rating system provided above.

Another test relates to Glycine max. The experiment in a line: Post-emergence test. Conditions: 2-4 weeks after treatment. The procedure:
To evaluate their herbicidal activity, compounds according to the invention are tested using a representative range of plants:
These acetone solutions are diluted with water and the resulting formulations applied at dosage levels equivalent of about 0.1 to 0. 4 kg per hectare of test compound per pot. After spraying the plants are placed on greenhouse benches and are cared for in the usual manner, commensurate with conventional greenhouse practices. From 2 to 4 weeks after treatment, the seedling plants are examined and rated according to the rating system provided above.

For the next test, the system named is Hordeum vulgare. Put plainly: Post-emergence test. Conditions: 2-4 weeks after treatment. The procedure:
as §2, with “HORVW Hordeum vulgare” for “MATIN Matricaria inodora”

Take `Cc1cc(Oc2cccc(C(F)(F)F)c2)nc(-c2cc(C(F)(F)F)nn2C)c1` [Example 63]: the MATIN herbicidal rating was 6 (6 - Herbicidal effect) in the test on Matricaria inodora [1] (0.100 kg/ha), 9 (9 - Complete kill) in the test with Matricaria inodora [1] (0.400 kg/ha), 5 (5 - Definite injury) in the test on Matricaria inodora [2] (0.1 kg/ha) and 7 (7 - Good herbicidal effect) in the test with Matricaria inodora [2] (0.4 kg/ha). Besides, the STEME herbicidal rating in the test on Stellaria media (0.100 kg/ha) is 3 (3 - Moderate effect); with Stellaria media (0.400 kg/ha), 9 (9 - Complete kill). For the same compound, the SETVI herbicidal rating in the test with Setaria viridis (0.025 kg/ha) is 1 (1 - Trace effect); in the test with Setaria viridis (0.100 kg/ha), 5 (5 - Definite injury); in the test on Setaria viridis (0.400 kg/ha), 9 (9 - Complete kill). Moreover, the TRZAW herbicidal rating in the test with Triticum aestivum (0.025 kg/ha), with Triticum aestivum (0.100 kg/ha) and with Triticum aestivum (0.400 kg/ha) was 0 (0 - No effect) in each case. The ZEAMX herbicidal rating in the test on Zea mays (0.025 kg/ha), in the test on Zea mays (0.100 kg/ha) and with Zea mays (0.400 kg/ha) was 0 (0 - No effect) throughout. The GLXMA herbicidal rating is on record as 3 (3 - Moderate effect) with Glycine max (0.1 kg/ha) and 7 (7 - Good herbicidal effect) with Glycine max (0.4 kg/ha). In addition, the HORVW herbicidal rating in the test on Hordeum vulgare (0.1 kg/ha) and in the test with Hordeum vulgare (0.4 kg/ha) was 3 (3 - Moderate effect) throughout.

For the compound `Cc1cnc(-c2cc(C(F)(F)F)nn2C)nc1Oc1cc(C(F)(F)F)nn1C` [Example 4, 2-(1-Methyl-3-trifluoromethylpyrazol-5-yl)-6-(1-methyl-3-trifluoromethylpyrazol-5-yloxy)-5-methylpyrimidine], the MATIN herbicidal rating was 8 (8 - Approaching complete kill) in the test with Matricaria inodora [1] (0.025 kg/ha); 8 (8 - Approaching complete kill) in the test with Matricaria inodora [1] (0.100 kg/ha); 9 (9 - Complete kill) with Matricaria inodora [1] (0.400 kg/ha); 5 (5 - Definite injury) in the test on Matricaria inodora [2] (0.1 kg/ha); 7 (7 - Good herbicidal effect) in the test on Matricaria inodora [2] (0.4 kg/ha). Also, the STEME herbicidal rating in the test with Stellaria media (0.025 kg/ha), with Stellaria media (0.100 kg/ha) and in the test with Stellaria media (0.400 kg/ha) was 9 (9 - Complete kill) each time. Besides, the SETVI herbicidal rating is reported as 8 (8 - Approaching complete kill) with Setaria viridis (0.025 kg/ha), 9 (9 - Complete kill) in the test with Setaria viridis (0.100 kg/ha) and 9 (9 - Complete kill) in the test with Setaria viridis (0.400 kg/ha). Moreover, the TRZAW herbicidal rating with Triticum aestivum (0.025 kg/ha) is reported as 1 (1 - Trace effect); in the test on Triticum aestivum (0.100 kg/ha) it was 2 (2 - Slight effect); in the test with Triticum aestivum (0.400 kg/ha), 4 (4 - Injury). Further, the ZEAMX herbicidal rating in the test on Zea mays (0.025 kg/ha) was 2 (2 - Slight effect); in the test on Zea mays (0.100 kg/ha) it was 2 (2 - Slight effect); in the test on Zea mays (0.400 kg/ha) it was 3 (3 - Moderate effect). The values for the GLXMA herbicidal rating with Glycine max (0.1 kg/ha) and with Glycine max (0.4 kg/ha) were 4 (4 - Injury) and 6 (6 - Herbicidal effect), respectively. Moreover, the values for the HORVW herbicidal rating in the test with Hordeum vulgare (0.1 kg/ha) and in the test on Hordeum vulgare (0.4 kg/ha) were 3 (3 - Moderate effect) and 5 (5 - Definite injury), respectively.

As to `Cn1nc(C(F)(F)F)cc1Oc1cc(C#N)cc(-c2cc(C(F)(F)F)nn2C)n1` [Example 3, 4-Cyano-2-(1-methyl-3-trifluoromethylpyrazol-5-yloxy)-6-(1-methyl-3-trifluoromethylpyrazol-5-yl)pyridine], the MATIN herbicidal rating is listed as 9 (9 - Complete kill) in the test on Matricaria inodora [1] (0.025 kg/ha); 9 (9 - Complete kill) in the test on Matricaria inodora [1] (0.100 kg/ha); 9 (9 - Complete kill) in the test with Matricaria inodora [1] (0.400 kg/ha); 8 (8 - Approaching complete kill) in the test on Matricaria inodora [2] (0.1 kg/ha); 8 (8 - Approaching complete kill) with Matricaria inodora [2] (0.4 kg/ha). Moreover, the figures for the STEME herbicidal rating in the test on Stellaria media (0.025 kg/ha), in the test on Stellaria media (0.100 kg/ha) and in the test on Stellaria media (0.400 kg/ha) were 8 (8 - Approaching complete kill), 9 (9 - Complete kill) and 9 (9 - Complete kill), respectively. Further, the results for the SETVI herbicidal rating in the test on Setaria viridis (0.025 kg/ha), with Setaria viridis (0.100 kg/ha) and in the test with Setaria viridis (0.400 kg/ha) were 3 (3 - Moderate effect), 5 (5 - Definite injury) and 8 (8 - Approaching complete kill), respectively. Moreover, the TRZAW herbicidal rating in the test on Triticum aestivum (0.025 kg/ha) is reported as 0 (0 - No effect); with Triticum aestivum (0.100 kg/ha), 0 (0 - No effect); in the test with Triticum aestivum (0.400 kg/ha) it was 4 (4 - Injury). The ZEAMX herbicidal rating in the test on Zea mays (0.025 kg/ha) is recorded as 3 (3 - Moderate effect); in the test on Zea mays (0.100 kg/ha), 3 (3 - Moderate effect); with Zea mays (0.400 kg/ha), 5 (5 - Definite injury). Further, the GLXMA herbicidal rating in the test with Glycine max (0.1 kg/ha) is 3 (3 - Moderate effect); with Glycine max (0.4 kg/ha), 4 (4 - Injury). Moreover, the HORVW herbicidal rating is on record as 3 (3 - Moderate effect) with Hordeum vulgare (0.1 kg/ha) and 5 (5 - Definite injury) in the test with Hordeum vulgare (0.4 kg/ha).
